Experimental data as given in US10131653B2, “Heterocyclic compound” (TAKEDA PHARMACEUTICAL COMPANY LIMITED, priority 2015, dated 2018).
Where two headings read alike, the source gives them in different places.

Experiments:
human OX1 receptor = target: T1, human OX1 receptor (Homo sapiens, UniProt O43613); test: Measurement of orexin receptor antagonistic activity (calcium fluorescence, FLIPRtetra); format: cell-based; conditions: CHO, read-out: Human Orexin1 receptor inhibition (at 10 μM)
T1 construct: expressed in transfected cells; host or cells: CHO cells
T1 sequence (O43613 1-425): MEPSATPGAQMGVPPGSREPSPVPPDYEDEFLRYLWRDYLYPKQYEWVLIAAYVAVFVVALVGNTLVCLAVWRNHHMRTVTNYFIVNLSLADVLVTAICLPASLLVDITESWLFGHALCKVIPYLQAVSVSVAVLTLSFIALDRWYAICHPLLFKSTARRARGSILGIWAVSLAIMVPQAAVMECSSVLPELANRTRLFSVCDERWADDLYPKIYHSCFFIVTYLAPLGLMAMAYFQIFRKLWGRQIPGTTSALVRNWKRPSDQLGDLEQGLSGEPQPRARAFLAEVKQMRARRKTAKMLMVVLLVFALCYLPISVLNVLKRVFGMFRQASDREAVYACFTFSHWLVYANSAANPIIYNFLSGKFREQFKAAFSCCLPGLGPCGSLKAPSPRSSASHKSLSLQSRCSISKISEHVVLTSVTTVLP
Procedure, shortened: (§1)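 CHO cells expressing human OX1 or OX2 receptor, cultured one day. Compound in HBSS/20 mM HEPES/0.1% BSA added, then orexin-A at 1 nM final (OX1) or 0.3 nM final (OX2); calcium fluorescence by FLIPRtetra every 1 s for 2 min.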

human OX2 receptor = target: T2, human OX2 receptor (Homo sapiens, UniProt O43614); test: as above; format: cell-based; conditions: CHO, read-out: Human Orexin2 receptor inhibition (at 10 μM)
T2 construct: expressed in transfected cells; host or cells: CHO cells
T2 sequence (O43614 1-444): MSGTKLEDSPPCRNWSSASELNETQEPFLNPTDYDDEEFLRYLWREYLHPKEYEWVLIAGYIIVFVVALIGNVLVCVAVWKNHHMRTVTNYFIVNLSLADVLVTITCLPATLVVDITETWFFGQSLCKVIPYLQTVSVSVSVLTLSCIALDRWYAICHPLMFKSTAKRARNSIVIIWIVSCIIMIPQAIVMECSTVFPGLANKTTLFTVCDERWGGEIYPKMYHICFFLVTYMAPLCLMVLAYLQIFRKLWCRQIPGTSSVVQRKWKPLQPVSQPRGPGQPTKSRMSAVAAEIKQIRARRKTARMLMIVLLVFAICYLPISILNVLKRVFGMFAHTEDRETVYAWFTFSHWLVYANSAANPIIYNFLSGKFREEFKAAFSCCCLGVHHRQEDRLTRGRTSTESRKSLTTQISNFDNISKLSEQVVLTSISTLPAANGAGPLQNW
Procedure, shortened: as §1

[1] = 10 μM test compound, CHO cells expressing human OX1 receptor, OX-A 1 nM
[2] = 10 μM test compound, CHO cells expressing human OX2 receptor, OX-A 0.3 nM

| SMILES | inhibition at 10 µM (human OX1 receptor; [1]) | inhibition at 10 µM (human OX2 receptor; [2]) | inhibition at 10 µM (human OX1 receptor) | inhibition at 10 µM (human OX2 receptor) |
| --- | --- | --- | --- | --- |
| COc1cccnc1N1CCN(C(=O)c2cc(C)ccc2-n2nccn2)[C@H](C)CO1 [Example 123, ((6R)-2-(3-methoxypyridin-2-yl)-6-methyl-1,2,5-oxadiazepan-5-yl) (5-methyl-2-(2H-1,2,3-triazol-2-yl)phenyl)methanone] | 23% | 74% | – | – |
| Cc1ccc(-n2nccn2)c(C(=O)N2CCN(c3cccc(C)n3)OC[C@H]2C)c1 [Example 124, ((6R)-6-methyl-2-(6-methylpyridin-2-yl)-1,2,5-oxadiazepan-5-yl) (5-methyl-2-(2H-1,2,3-triazol-2-yl)phenyl)methanone] | 85% | 101% | – | – |
| Cc1ccnc(N2CCN(C(=O)c3cc(C)ccc3-n3nccn3)[C@H](C)CO2)c1 [Example 125, ((6R)-6-methyl-2-(4-methylpyridin-2-yl)-1,2,5-oxadiazepan-5-yl) (5-methyl-2-(2H-1,2,3-triazol-2-yl)phenyl)methanone] | 68% | 98% | – | – |
| COc1cccc(N2CCN(C(=O)c3cc(C)ccc3-n3nccn3)[C@H](C)CO2)n1 [Example 126, ((6R)-2-(6-methoxypyridin-2-yl)-6-methyl-1,2,5-oxadiazepan-5-yl) (5-methyl-2-(2H-1,2,3-triazol-2-yl)phenyl)methanone] | 96% | 97% | – | – |
| Cc1ccc(-n2nccn2)c(C(=O)N2CCN(c3cc(C(F)(F)F)ccn3)OC[C@H]2C)c1 [Example 127, (5-methyl-2-(2H-1,2,3-triazol-2-yl)phenyl) ((6R)-6-methyl-2-(4-(trifluoromethyl)pyridin-2-yl)-1,2,5-oxadiazepan-5-yl)methanone] | 66% | 86% | – | – |
| Cc1ccc(-n2nccn2)c(C(=O)N2CCN(c3cccc(C(F)(F)F)n3)OC[C@H]2C)c1 [Example 128, (5-methyl-2-(2H-1,2,3-triazol-2-yl)phenyl) ((6R)-6-methyl-2-(6-(trifluoromethyl)pyridin-2-yl)-1,2,5-oxadiazepan-5-yl)methanone] | 99% | 96% | – | – |
| Cc1ccc(-n2nccn2)c(C(=O)N2CCN(c3nc(C)cnc3C)OC[C@H]2C)c1 [Example 129, ((6R)-2-(3,6-dimethylpyrazin-2-yl)-6-methyl-1,2,5-oxadiazepan-5-yl) (5-methyl-2-(2H-1,2,3-triazol-2-yl)phenyl)methanone] | 38% | 86% | – | – |
| Cc1ccc(-n2nccn2)c(C(=O)N2CCN(c3cn4ccccc4n3)OC[C@H]2C)c1 [Example 130, ((6R)-2-(imidazo[1,2-a]pyridin-2-yl)-6-methyl-1,2,5-oxadiazepan-5-yl) (5-methyl-2-(2H-1,2,3-triazol-2-yl)phenyl)methanone] | – | – | 62% | 56% |
| Cc1cncc(N2CCN(C(=O)c3cc(C)ccc3-n3nccn3)[C@H](C)CO2)c1 [Example 131, ((6R)-6-methyl-2-(5-methylpyridin-3-yl)-1,2,5-oxadiazepan-5-yl) (5-methyl-2-(2H-1,2,3-triazol-2-yl)phenyl)methanone] | – | – | -7% | 38% |
| COc1cncc(N2CCN(C(=O)c3cc(C)ccc3-n3nccn3)[C@H](C)CO2)c1 [Example 132, ((6R)-2-(5-methoxypyridin-3-yl)-6-methyl-1,2,5-oxadiazepan-5-yl) (5-methyl-2-(2H-1,2,3-triazol-2-yl)phenyl)methanone] | 10% | 67% | – | – |
| Cc1ccc(-n2nccn2)c(C(=O)N2CCN(c3cncc(Cl)c3)OC[C@H]2C)c1 [Example 133, ((6R)-2-(5-chloropyridin-3-yl)-6-methyl-1,2,5-oxadiazepan-5-yl) (5-methyl-2-(2H-1,2,3-triazol-2-yl)phenyl)methanone] | – | – | 11% | 70% |
| Cc1ccc(-n2nccn2)c(C(=O)N2CCN(c3ccc(F)c(Cl)c3)OC[C@H]2C)c1 [Example 134, ((6R)-2-(3-chloro-4-fluorophenyl)-6-methyl-1,2,5-oxadiazepan-5-yl) (5-methyl-2-(2H-1,2,3-triazol-2-yl)phenyl)methanone] | – | – | 92% | 80% |
| Cc1ccc(-n2nccn2)c(C(=O)N2CCN(c3ccc(F)cc3)OC[C@H]2C)c1 [Example 135, ((6R)-2-(4-fluorophenyl)-6-methyl-1,2,5-oxadiazepan-5-yl) (5-methyl-2-(2H-1,2,3-triazol-2-yl)phenyl)methanone] | – | – | 15% | 88% |
| Cc1ccc(-n2nccn2)c(C(=O)N2CCN(c3cc(C#N)ccn3)OC[C@H]2C)c1 [Example 136, 2-((6R)-6-methyl-5-(5-methyl-2-(2H-1,2,3-triazol-2-yl)benzoyl)-1,2,5-oxadiazepan-2-yl)isonicotinonitrile] | 36% | 95% | – | – |
| COc1ccnc(N2CCN(C(=O)c3cc(C)ccc3-n3nccn3)[C@H](C)CO2)c1 [Example 137, ((6R)-2-(4-methoxypyridin-2-yl)-6-methyl-1,2,5-oxadiazepan-5-yl) (5-methyl-2-(2H-1,2,3-triazol-2-yl)phenyl)methanone] | – | – | 93% | 100% |
| Cc1ccc(-n2nccn2)c(C(=O)N2CCN(c3cccc(-n4cccn4)n3)OC[C@H]2C)c1 [Example 138, ((6R)-6-methyl-2-(6-(1H-pyrazol-1-yl)pyridin-2-yl)-1,2,5-oxadiazepan-5-yl) (5-methyl-2-(2H-1,2,3-triazol-2-yl)phenyl)methanone] | – | – | 96% | 95% |
| Cc1ccc(-n2nccn2)c(C(=O)N2CCN(c3cc(C(F)F)ccn3)OC[C@H]2C)c1 [Example 139, ((6R)-2-(4-(difluoromethyl)pyridin-2-yl)-6-methyl-1,2,5-oxadiazepan-5-yl) (5-methyl-2-(2H-1,2,3-triazol-2-yl)phenyl)methanone] | – | – | 54% | 98% |
| Cc1ccc(-n2nccn2)c(C(=O)N2CCN(c3cccc(C#N)c3)OC[C@H]2C)c1 [Example 140, 3-((6R)-6-methyl-5-(5-methyl-2-(2H-1,2,3-triazol-2-yl)benzoyl)-1,2,5-oxadiazepan-2-yl)benzonitrile] | – | – | 21% | 88% |
| Cc1ccc(N2CCN(C(=O)c3cc(C)ccc3-n3nccn3)[C@H](C)CO2)nc1 [Example 141, ((6R)-6-methyl-2-(5-methylpyridin-2-yl)-1,2,5-oxadiazepan-5-yl) (5-methyl-2-(2H-1,2,3-triazol-2-yl)phenyl)methanone] | – | – | 71% | 99% |
| Cc1cc(C)nc(N2CCN(C(=O)c3cc(C)ccc3-n3nccn3)[C@H](C)CO2)c1 [Example 142, ((6R)-2-(4,6-dimethylpyridin-2-yl)-6-methyl-1,2,5-oxadiazepan-5-yl) (5-methyl-2-(2H-1,2,3-triazol-2-yl)phenyl)methanone] | – | – | 99% | 97% |
| Cc1ccc(-n2nccn2)c(C(=O)N2CCN(c3cc(C)nc(C)c3)OC[C@H]2C)c1 [Example 143, ((6R)-2-(2,6-dimethylpyridin-4-yl)-6-methyl-1,2,5-oxadiazepan-5-yl) (5-methyl-2-(2H-1,2,3-triazol-2-yl)phenyl)methanone] | – | – | 1% | 44% |
| Cc1ccc(-n2nccn2)c(C(=O)N2CCN(c3ccnc(C)c3)OC[C@H]2C)c1 [Example 144, ((6R)-6-methyl-2-(2-methylpyridin-4-yl)-1,2,5-oxadiazepan-5-yl) (5-methyl-2-(2H-1,2,3-triazol-2-yl)phenyl)methanone] | – | – | 14% | 12% |
| Cc1ccc(-n2nccn2)c(C(=O)N2CCN(c3ncccc3C)OC[C@H]2C)c1 [Example 145, ((6R)-6-methyl-2-(3-methylpyridin-2-yl)-1,2,5-oxadiazepan-5-yl) (5-methyl-2-(2H-1,2,3-triazol-2-yl)phenyl)methanone] | – | – | 25% | 82% |
| Cc1ccc(-n2nccn2)c(C(=O)N2CCN(c3ccnc(C(F)(F)F)c3)OC[C@H]2C)c1 [Example 146, (5-methyl-2-(2H-1,2,3-triazol-2-yl)phenyl) ((6R)-6-methyl-2-(2-(trifluoromethyl)pyridin-4-yl)-1,2,5-oxadiazepan-5-yl)methanone] | – | – | 66% | 88% |
